Key:
[1] = Water-solubility of human C-peptide; assay type: physicochemical; conditions: observed when preparing formulations; phase-separation methods gave high losses of active substance
[2] = cited from earlier work

Compound: CC(C)C[C@H](NC(=O)[C@H](C)NC(=O)[C@H](CC(C)C)NC(=O)[C@@H]1CCCN1C(=O)[C@H](CCC(N)=O)NC(=O)[C@H](CC(C)C)NC(=O)[C@H](CO)NC(=O)CNC(=O)[C@H](C)NC(=O)CNC(=O)[C@@H]1CCCN1C(=O)CNC(=O)CNC(=O)CNC(=O)[C@H](CC(C)C)NC(=O)[C@H](CCC(=O)O)NC(=O)[C@@H](NC(=O)[C@H](CCC(N)=O)NC(=O)CNC(=O)[C@@H](NC(=O)[C@H](CCC(N)=O)NC(=O)[C@H](CC(C)C)NC(=O)[C@H](CC(=O)O)NC(=O)[C@H](CCC(=O)O)NC(=O)[C@H](C)NC(=O)[C@@H](N)CCC(=O)O)C(C)C)C(C)C)C(=O)N[C@@H](CCC(=O)O)C(=O)NCC(=O)N[C@@H](CO)C(=O)N[C@@H](CC(C)C)C(=O)N[C@@H](CCC(N)=O)C(=O)O [C-peptide]
- water-solubility [1]: strong water-solubility
- half-life of plasma in humans [2]: about 40 minutes

From US20040053817A1, “Delayed-release pharmaceutical formulations” (priority 2000, published 2004)
